Experimental findings from article PMC4774911, “Biochemical Screening of Five Protein Kinases from Plasmodium falciparum against 14,000 Cell-Active Compounds” (PLoS ONE, 2016) are described below.

What all share (assay): biochemical
Set-up in all cases: endogenous in cells; host or cells: K562 cell extract; species or system K562 (extract); replicate k of n = 2 (each experiment ID is one independent experiment; two experiment IDs per compound)
Conditions in all cases: read-out: KDapp

The target in test [1] is MAP3K4 (Homo sapiens, UniProt Q9Y6R4).
Test [2] addresses T1, ACVR1B (Homo sapiens, UniProt P36896).
T1 sequence (P36896 1-505): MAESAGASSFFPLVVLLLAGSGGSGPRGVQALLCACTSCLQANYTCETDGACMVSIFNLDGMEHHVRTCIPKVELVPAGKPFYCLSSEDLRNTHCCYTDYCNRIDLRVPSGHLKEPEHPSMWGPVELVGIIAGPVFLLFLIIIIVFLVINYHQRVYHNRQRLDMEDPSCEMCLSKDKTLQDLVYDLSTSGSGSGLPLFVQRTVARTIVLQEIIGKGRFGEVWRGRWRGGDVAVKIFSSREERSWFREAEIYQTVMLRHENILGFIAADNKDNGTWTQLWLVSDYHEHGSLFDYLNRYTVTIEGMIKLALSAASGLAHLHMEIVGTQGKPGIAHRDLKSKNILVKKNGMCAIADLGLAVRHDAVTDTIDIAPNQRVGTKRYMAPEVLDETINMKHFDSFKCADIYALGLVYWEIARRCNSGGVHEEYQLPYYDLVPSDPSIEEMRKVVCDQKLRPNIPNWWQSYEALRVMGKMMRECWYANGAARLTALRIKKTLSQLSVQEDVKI

In test [3] the target is T2, STK17A (Homo sapiens, UniProt Q9UEE5).
T2 sequence (Q9UEE5 1-414): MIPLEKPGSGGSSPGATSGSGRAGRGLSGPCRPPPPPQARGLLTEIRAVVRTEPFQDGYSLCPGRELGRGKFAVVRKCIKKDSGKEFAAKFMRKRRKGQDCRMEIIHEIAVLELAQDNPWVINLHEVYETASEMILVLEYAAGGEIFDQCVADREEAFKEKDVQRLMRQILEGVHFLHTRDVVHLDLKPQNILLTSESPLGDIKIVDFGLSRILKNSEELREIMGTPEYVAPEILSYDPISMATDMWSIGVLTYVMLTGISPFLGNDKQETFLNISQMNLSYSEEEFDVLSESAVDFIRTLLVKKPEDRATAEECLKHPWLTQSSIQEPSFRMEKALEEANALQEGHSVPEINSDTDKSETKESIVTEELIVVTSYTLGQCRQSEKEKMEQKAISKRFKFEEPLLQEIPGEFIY

Test [4] concerns the target PRKAA1 (Homo sapiens, UniProt Q13131).
Test [5] deals with CSK (Homo sapiens, UniProt P41240).
Test [6] has as its target YES1 (Homo sapiens, UniProt P07947).
Test [7] has as its target MELK (Homo sapiens, UniProt Q14680).
Test [8] addresses ZAK (Homo sapiens, UniProt Q9NYL2).
Test [9] deals with PRKACB (Homo sapiens, UniProt P22694).
Test [10] has as its target T3, NEK2 (Homo sapiens, UniProt P51955).
T3 sequence (P51955 1-445): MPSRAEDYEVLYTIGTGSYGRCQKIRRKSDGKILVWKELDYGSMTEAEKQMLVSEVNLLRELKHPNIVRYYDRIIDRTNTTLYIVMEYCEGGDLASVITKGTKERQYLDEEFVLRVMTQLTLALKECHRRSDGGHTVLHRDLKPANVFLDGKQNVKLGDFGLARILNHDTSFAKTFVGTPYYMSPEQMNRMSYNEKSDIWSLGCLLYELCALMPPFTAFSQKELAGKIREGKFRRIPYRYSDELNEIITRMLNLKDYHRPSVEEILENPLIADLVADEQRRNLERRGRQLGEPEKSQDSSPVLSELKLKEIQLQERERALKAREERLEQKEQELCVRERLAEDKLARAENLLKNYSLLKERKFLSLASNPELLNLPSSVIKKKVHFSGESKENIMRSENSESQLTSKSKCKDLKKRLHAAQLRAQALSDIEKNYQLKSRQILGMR

Where “and” joins values, the source holds several entries; their conditions need not be identical. Identical values can stand only once.

Chain of ZAK (Q9NYL2 whole entry): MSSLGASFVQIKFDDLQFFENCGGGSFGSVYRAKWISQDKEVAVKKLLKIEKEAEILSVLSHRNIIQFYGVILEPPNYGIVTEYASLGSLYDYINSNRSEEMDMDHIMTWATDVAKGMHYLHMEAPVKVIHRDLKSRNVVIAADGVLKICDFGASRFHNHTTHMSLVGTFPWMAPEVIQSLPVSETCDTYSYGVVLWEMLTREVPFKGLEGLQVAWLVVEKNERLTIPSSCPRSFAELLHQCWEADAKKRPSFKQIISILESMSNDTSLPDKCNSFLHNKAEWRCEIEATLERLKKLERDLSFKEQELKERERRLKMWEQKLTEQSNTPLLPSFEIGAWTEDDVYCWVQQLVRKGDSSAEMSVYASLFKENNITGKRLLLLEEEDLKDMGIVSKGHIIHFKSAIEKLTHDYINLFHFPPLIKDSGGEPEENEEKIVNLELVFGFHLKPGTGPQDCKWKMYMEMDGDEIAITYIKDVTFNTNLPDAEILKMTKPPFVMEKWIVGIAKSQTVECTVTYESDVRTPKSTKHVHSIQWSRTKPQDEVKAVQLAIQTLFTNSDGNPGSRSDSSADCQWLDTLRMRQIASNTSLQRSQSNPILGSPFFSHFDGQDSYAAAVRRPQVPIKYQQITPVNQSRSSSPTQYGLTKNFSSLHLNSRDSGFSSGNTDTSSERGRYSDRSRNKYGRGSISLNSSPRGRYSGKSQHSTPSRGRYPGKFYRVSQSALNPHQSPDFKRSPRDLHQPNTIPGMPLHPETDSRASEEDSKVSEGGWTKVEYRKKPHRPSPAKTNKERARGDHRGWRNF
Chain of MAP3K4 (Q9Y6R4 whole entry): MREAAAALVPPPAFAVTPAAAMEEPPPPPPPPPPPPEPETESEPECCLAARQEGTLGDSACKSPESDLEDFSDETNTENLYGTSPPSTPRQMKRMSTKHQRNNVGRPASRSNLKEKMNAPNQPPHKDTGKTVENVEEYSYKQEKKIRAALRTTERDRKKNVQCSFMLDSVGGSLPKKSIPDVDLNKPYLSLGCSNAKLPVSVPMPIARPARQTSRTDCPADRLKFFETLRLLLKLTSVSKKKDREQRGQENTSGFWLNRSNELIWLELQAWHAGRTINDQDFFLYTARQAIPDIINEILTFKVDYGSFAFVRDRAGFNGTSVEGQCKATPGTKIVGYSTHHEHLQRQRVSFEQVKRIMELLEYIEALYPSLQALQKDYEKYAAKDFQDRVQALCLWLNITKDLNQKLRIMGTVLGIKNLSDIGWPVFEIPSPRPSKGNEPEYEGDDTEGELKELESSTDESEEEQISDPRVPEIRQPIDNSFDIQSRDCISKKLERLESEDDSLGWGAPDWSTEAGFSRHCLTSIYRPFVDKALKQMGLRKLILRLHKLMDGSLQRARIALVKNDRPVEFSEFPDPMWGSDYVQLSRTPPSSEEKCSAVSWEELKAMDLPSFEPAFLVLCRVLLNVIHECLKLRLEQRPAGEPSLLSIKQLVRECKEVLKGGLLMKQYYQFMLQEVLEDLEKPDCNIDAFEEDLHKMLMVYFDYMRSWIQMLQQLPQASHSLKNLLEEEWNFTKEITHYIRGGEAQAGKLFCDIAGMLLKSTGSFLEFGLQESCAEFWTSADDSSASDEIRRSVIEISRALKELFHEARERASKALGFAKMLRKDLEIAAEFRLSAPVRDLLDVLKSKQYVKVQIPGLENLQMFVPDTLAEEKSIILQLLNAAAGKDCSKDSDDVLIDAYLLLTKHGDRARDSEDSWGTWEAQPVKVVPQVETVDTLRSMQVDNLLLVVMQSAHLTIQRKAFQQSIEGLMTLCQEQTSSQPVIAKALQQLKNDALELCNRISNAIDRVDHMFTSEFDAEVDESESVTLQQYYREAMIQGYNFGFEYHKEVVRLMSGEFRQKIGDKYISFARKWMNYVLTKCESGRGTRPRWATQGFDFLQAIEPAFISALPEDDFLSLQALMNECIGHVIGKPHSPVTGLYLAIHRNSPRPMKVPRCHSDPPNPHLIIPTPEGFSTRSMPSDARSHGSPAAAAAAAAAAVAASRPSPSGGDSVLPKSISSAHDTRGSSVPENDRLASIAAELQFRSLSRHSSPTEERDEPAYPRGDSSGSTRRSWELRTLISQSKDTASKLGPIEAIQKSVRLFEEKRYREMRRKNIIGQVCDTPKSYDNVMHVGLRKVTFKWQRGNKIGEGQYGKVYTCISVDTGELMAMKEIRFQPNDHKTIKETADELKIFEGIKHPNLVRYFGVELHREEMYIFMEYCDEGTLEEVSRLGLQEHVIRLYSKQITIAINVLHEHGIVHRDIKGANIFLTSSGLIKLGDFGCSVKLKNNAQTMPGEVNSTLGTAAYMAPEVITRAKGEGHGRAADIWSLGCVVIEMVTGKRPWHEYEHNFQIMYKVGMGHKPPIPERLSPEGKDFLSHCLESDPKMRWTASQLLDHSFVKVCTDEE
Chain of MELK (Q14680 whole entry): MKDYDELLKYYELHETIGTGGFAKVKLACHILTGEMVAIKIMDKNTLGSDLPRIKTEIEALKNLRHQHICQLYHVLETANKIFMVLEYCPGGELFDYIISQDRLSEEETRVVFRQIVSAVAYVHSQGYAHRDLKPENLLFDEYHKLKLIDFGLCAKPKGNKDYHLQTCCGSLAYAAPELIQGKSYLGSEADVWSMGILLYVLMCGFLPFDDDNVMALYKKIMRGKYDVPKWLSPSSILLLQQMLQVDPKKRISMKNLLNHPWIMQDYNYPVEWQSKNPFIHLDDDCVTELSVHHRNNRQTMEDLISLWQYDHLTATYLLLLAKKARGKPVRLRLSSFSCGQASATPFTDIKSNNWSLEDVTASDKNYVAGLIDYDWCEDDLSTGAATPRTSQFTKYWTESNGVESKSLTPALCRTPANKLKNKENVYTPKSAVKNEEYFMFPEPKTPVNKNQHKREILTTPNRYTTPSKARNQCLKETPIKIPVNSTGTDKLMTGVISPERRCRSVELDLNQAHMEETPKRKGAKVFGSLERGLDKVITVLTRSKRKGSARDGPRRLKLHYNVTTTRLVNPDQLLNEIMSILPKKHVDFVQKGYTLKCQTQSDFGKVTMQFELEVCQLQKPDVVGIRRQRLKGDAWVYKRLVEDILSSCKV
Chain of PRKAA1 (Q13131 whole entry): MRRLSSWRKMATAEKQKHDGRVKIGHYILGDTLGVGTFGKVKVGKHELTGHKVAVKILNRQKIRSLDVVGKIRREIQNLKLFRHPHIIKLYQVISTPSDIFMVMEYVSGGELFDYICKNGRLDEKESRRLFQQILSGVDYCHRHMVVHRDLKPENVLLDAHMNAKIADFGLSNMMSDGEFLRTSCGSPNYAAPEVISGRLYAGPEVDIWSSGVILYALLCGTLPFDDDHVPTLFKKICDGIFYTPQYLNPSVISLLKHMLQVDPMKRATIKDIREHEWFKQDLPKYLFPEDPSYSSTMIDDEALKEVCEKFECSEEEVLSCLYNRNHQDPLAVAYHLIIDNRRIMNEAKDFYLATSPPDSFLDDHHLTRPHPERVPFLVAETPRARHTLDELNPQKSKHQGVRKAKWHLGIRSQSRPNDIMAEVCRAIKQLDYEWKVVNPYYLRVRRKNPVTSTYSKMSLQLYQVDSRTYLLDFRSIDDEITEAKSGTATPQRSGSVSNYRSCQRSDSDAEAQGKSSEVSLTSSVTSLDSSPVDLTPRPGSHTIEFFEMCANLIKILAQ
Chain of YES1 (P07947 whole entry): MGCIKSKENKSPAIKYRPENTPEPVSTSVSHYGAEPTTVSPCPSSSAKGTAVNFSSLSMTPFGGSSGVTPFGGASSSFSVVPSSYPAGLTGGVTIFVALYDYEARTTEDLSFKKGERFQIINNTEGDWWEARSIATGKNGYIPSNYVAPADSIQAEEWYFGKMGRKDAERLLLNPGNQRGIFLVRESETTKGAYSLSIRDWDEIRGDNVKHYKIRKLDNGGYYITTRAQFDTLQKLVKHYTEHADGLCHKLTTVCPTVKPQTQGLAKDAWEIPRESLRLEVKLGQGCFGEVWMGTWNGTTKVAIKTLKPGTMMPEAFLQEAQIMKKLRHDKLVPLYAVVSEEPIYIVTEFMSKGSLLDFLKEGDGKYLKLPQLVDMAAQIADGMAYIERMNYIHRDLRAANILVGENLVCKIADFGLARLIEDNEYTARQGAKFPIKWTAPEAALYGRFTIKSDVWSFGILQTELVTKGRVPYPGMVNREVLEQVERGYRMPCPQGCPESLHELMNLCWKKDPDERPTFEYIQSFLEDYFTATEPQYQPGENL
Chain of CSK (P41240 whole entry): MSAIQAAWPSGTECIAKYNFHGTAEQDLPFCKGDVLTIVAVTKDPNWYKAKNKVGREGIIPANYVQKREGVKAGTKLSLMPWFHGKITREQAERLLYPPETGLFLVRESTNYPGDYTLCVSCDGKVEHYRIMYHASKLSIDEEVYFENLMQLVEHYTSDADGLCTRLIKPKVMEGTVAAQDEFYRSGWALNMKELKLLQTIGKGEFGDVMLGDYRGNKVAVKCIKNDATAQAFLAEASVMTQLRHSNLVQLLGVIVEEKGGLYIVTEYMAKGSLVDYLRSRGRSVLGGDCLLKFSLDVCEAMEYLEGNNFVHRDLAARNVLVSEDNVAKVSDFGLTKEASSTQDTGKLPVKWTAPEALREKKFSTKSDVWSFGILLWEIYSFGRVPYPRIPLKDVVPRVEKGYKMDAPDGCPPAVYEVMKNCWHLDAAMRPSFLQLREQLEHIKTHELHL

For `CN1CCN(c2ccc(Nc3ncc(C#N)c(Nc4ccccc4C(N)=O)n3)cc2)CC1.Cl` [TCMDC-134116], the Kd in test [1] is 0.0198 µM and 0.0258 µM; in test [2], 1.63 µM; in test [3] it was 0.109 µM; in test [4], 0.0141 µM and 0.0182 µM; in test [5], 2.47 µM; in [6] it was 0.0406 µM and 0.0507 µM. Also, the Kd in test [7] is 0.129 µM and 0.125 µM; in [8], 0.677 µM; in test [9] it was 5.74 µM; in [10], 0.269 µM and 0.118 µM.

On to `Cl.NCC1(c2nc(-c3ccc(Cl)c(O)c3)c(-c3ccncc3)[nH]2)CCCCC1` [TCMDC-141154], for which the Kd in test [2] was 0.24 µM; in [5], 2.65 µM; in test [6], 1.49 µM and 2.6 µM; in test [7], 1.68 µM and 1.61 µM; in [8], 6.13 µM and 3.63 µM; in test [9], 0.811 µM.

Turning to `CN(C)CC(O)COc1ccc(Nc2ncc([N+](=O)[O-])c(Nc3ccccc3O)n2)cc1.O=C(O)C(F)(F)F` (centres unmarked) [TCMDC-141399], the Kd in test [1] is 0.426 µM; in test [3] it was 2.55 µM; in test [4], 2.63 µM and 2.85 µM; in test [10] it was 3.06 µM and 1.98 µM.
